Patent US8877802B2 (priority 2005, dated 2014)

Tests used:
DAT-KO mice [1] = experiment: Locomotor activity after αMT
DAT-KO mice [2] = experiment: Behavioral tests after αMT (akinesia, catalepsy, grasping, bracing, tremor, ptosis, righting reflex); conditions: αMT 250 mg/kg IP
WT mice [3] = experiment: Locomotor activity after αMT; conditions: αMT 250 mg/kg IP
DAT-KO mice [4] = conditions: 100 mg/kg IP once every 3 d for 40 wk; cited from earlier work
DAT-KO mice [5] = experiment: In vivo microdialysis of striatal extracellular DA; conditions: αMT 250 mg/kg IP; freely moving DAT-KO mice
Method: (§1) Neurochemical assessments. Striatal tissue contents of DA and frontal cortical tissue levels of NE were assessed using HPLC-EC (high performance liquid chromatography with electrochemical detection) as described. In vivo microdialysis measurements of striatal extracellular DA levels in freely moving mice were performed at least 24 h after implantation of a microdialysis probe as described previously. Dialysate samples were assayed for DA using HPLC-EC.

WT mice [6] = experiment: In vivo microdialysis of striatal extracellular DA; conditions: αMT 250 mg/kg IP; freely moving WT mice
Method: as §1

DAT-KO mice [7] = experiment: Striatal tissue DA by HPLC-EC after αMT; format: in vivo; conditions: αMT 250 mg/kg IP
Method: as §1

WT mice [8] = experiment: Striatal tissue DA by HPLC-EC after αMT; format: in vivo; conditions: αMT 250 mg/kg IP; 4 h
Method: as §1

DAT-KO mice [9] = experiment: Frontal cortex tissue NE by HPLC-EC after αMT; format: in vivo; conditions: αMT 250 mg/kg IP; 8 h after treatment
Method: as §1

WT mice [10] = experiment: Frontal cortex tissue NE by HPLC-EC after αMT; format: in vivo; conditions: αMT 250 mg/kg IP; 8 h after treatment
Method: as §1

With `CC(N)(Cc1ccc(O)cc1)C(=O)O` (stereo not drawn) [αMT, α-methyl-p-tyrosine] the “time to restoration of locomotor activity” value (DAT-KO mice [1]; after αMT 250 mg/kg IP) was 16 to 24 h, the “total distance traveled for 210 min after drug administration” value (DAT-KO mice [1]; αMT 250 mg/kg IP) was 448±75 cm/210 min and the “akinesia, catalepsy, grasping, bracing, tremor and ptosis tests” value (DAT-KO mice [2]) was “induced profound alterations”. The righting reflex (DAT-KO mice [2]) was “did not affect the righting reflex”, the “total distance traveled for 210 min after drug administration” value (WT mice [3]) was 505±98 cm/210 min and the “consequences of chronic treatment” value (DAT-KO mice [4]) was “showed no negative consequences”. For the same compound, the “effect on extracellular DA levels in striatum” value (DAT-KO mice [5]) was “essentially eliminated extracellular DA levels”, the “effect on extracellular DA levels in striatum” value (WT mice [6]) was “only a partial decrease” and the “duration of the striatal DA depletion” value (DAT-KO mice [7]) was “up to 16 h”. For the same compound, the “striatal DA remaining after depletion” value (DAT-KO mice [7]; 15 min) was 5 % of control levels in DAT-KO mice, the “striatal DA remaining after depletion” value (DAT-KO mice [7]; DAT-KO mice, expressed against WT control) was “less than 0.2 % of WT control levels” and the “depletion of striatal tissue DA” value (WT mice [8]) was 60%. The “NE depletion in frontal cortex” value (DAT-KO mice [9]) was “about 60%” and the “NE depletion in frontal cortex” value (WT mice [10]) was “about 60%”.
